Key:
[1] = test system: MinoUniCAR-transduced PBMCs against SupT1-EGFR+ cells; experiment: MinoUniCAR cytotoxicity with EGFR-peptide adaptor; format: cell-based, human; settings: 10 μM minocycline, 24 h, 1:2 E/T
Method: Transduced CAR T cells were determined by staining for the transduction marker RQR8 and normalized by the addition of nontransduced T cells. Effector cells were cocultured with 5.0 × 10^4 number of target cells (SupT1-NT, SupT1-EGFR+, SKOV3-mKate) to achieve the desired effector cell to target ratio. Where appropriate, minocycline was supplemented as a part of the culture conditions. Cocultures were incubated for 24–72 h at 37 °C and 5% CO2. After incubation, plates were centrifuged at 400g for 5 min, and the supernatant containing secreted cytokines was collected for cytokine analysis. Cells were stained with anti-hCD34-APC and anti-CD3-PeCy7 to differentiate effector T cells and target cells. Cells were washed with 300 μL o PBS and stained with SYTOX Blue Dead Cell Stain dye. The percentage of target cell survival was measured relative to the number of live target cells cocultured with nonspecific CAR T cells or nontransduced PBMCs.
(§1) Transduced PBMCs were stained using RQR8 expression and V5 markers. Cells were then normalized to 50% efficiency by diluting with nontransduced T cells. The tumor-targeting adaptor protein (EGFR sdAb) fused to the GWARA peptide was separately expressed by CHO cell transient transfection and purified by His-tag chromatography. […] IFN-γ secretion was measured as described above.

[2] = test system: MyD88/CD40 signaling in transduced PBMCs; experiment: IFN-γ secretion of PBMCs with aMinoC1/GWARA-MyD88/CD40 module; format: cell-based, human; settings: increasing concentrations of minocycline
Method: (§2) IFN-γ, IL2, and IL12 secretion was measured by collecting the supernatant from the respective cell-based assay and frozen at −20 °C prior to analysis by ELISA. IFN-γ, IL2, and IL12 ELISAs were carried out using the Human IFN-γ ELISA MAX Deluxe kit, Human IL2 ELISA MAX Deluxe kit, and Human IL12 (p70) ELISA MAX Deluxe kit in accordance with the manufacturer’s instructions (BioLegend).

[3] = test system: MinoCAR-transduced PBMC against SKOV3 EGFR+ target cells; experiment: Tunability and reversibility assays (Incucyte kinetics of cytotoxicity); format: cell-based, human; settings: minocycline 0 to 10 μM, 1:2 E/T
Method: EGFR+ SKOV3-mKate cells were seeded at 1.0 × 10^4 cells per well in a TC-treated flat-bottomed 96-well plate. For reversibility experiments, MinoCAR ON–OFF kinetics were tested by preactivating CAR T cells by incubating cells for 2 h on plates precoated with recombinant EGFR (10 μg/mL). CAR T cells were washed using 15 mL of PBS prior to coculture. […] Cells were then washed using 15 mL of PBS prior to coculture. Untreated CAR T cells were used as a control and were directly preceded to coculturing set. […] The Incucyte ZOOM Live-Cell Analysis System was used to carry out image capture at a rate of one image every 1 h for 150 h. […] The image capture rate of each condition was set at 1 image per hour for 72 h.

aMinoC1 sdAb = experiment: ELISA of CX7C-muIgG2a-Fc peptide fusions on aMinoC1 with or without minocycline; format: binding, alpaca; settings: 1 μM minocycline
[4] = test system: HEK-293T transduced with the aMinoC1 transmembrane receptor; experiment: Flow cytometry of peptide-muIgG2a Fc binding to cells with aMinoC1 transmembrane receptor; format: cell-based, human; settings: GWARA, HWAQA, PWAYS, QWAMM, increasing minocycline, caffeine 100 μM
Method: Flow cytometry was performed using the MACSQuant Analyzer 10 or MACSQuant X (Miltenyi Biotec). All flow cytometry data was analyzed using FlowJo v.7.6.2 software (Tree Star Inc., Ashland, OR). Cell staining was carried out by incubation with PBS containing the recommended concentration of antibodies at RT for 30 min. PBS washes were carried out between antibody staining. Cell viability was determined using viability dye SYTOX Blue Dead Cell Stain (ThermoFisher) prior to flow cytometric analysis. Cells were first gated for singlet population identified by FSC-H and FSC-A. Next, live cells were identified using a viability dye, followed by gating for target cell populations. The antibodies used in the study are as follows: CD3 PECy7 (Biolegend, 317334), Human CD34 APC-conjugated antibody (R&D system, FAB7227A), Human CD34 Alexa Fluor 488-conjugated antibody (R&D system, FAB7227G), Streptavidin PE (Biolegend, 405204), APC antihuman EGFR antibody (Biolegend, 352905), Alexa Fluor 488 antihuman EGFR antibody (Biolegend, 352907), PE anti-HA.11 Epitope Tag antibody (Biolegend, 901517), Anti-M13-HRP (Sino Biologics, 1197 mm05T-H), Anti-Myc-HRP (Genscript, A00863), and SYTOX Blue Dead Cell Stain (ThermoFisher, S10274).

[5] = test system: MinoUniCAR-transduced PBMCs; experiment: MinoUniCAR IFN-γ release with EGFR-peptide adaptor; format: cell-based, human; settings: 10 vs 0 μM minocycline
Method: as §2, §1

**Q.** What does the source list for `CN(C)c1ccc(O)c2c1C[C@H]1C[C@H]3[C@H](N(C)C)C(O)=C(C(N)=O)C(=O)[C@@]3(O)C(O)=C1C2=O` [minocycline]?
**A.** target cell survival [1]: 95%; decrease of IFN-γ secretion [2]: 2 fold; SKOV3 target cell killing kinetics [3]: dose-dependent decrease in SKOV3 target cell killing; ELISA detection of peptide-Fc on aMinoC1 in presence of minocycline (aMinoC1 sdAb): out-competed peptide-Fc conjugates; peptide-muIgG2a Fc binding to membrane-bound aMinoC1 in presence of small molecule [4]: Dose-dependent reduction of peptide-muIgG2a Fc binding; peptide-muIgG2a Fc binding to membrane-bound aMinoC1 in presence of small molecule ([4]; listed as Minocycline): concentration-dependent reduction in peptide binding; cytokine (IFN-γ) reduction [5]: 10 fold

Reference: PMC10877577 (ACS Chemical Biology, 2024)
